Experimental data: patent US20210292347A1, “DIHETEROCYCLIC TRIAZINONE NUCLEOSIDE ANALOGS AND THEIR USE FOR MEDICATION” (priority 2020, published 2021)

System: mice sarcoma S180
Experiment: Growth inhibition of S180 sarcoma in mice
Format: in vivo, Kunming healthy mice
Settings: for in-vivo anti-tumor efficacy, statistical significance (in words): S180 sarcoma in mice, doses and routes of Table 3
[1] = Mus musculus, S-180, mice, iv, read-out: Inhibition rate (%) S180 sarcoma
[2] = Mus musculus, S-180, mice, ip, 400 mg/kg, read-out: Inhibition rate (%) S180 sarcoma
[3] = Mus musculus, S-180, mice, ip, read-out: Inhibition rate (%) S180 sarcoma
[4] = Mus musculus, S-180, mice, ip, 200 mg/kg, read-out: Inhibition rate (%) S180 sarcoma
[5] = Mus musculus, S-180, mice, iv, 12.5 mg/kg, read-out: Inhibition rate (%) S180 sarcoma

CCOP(=O)(OCC)C(C(=O)O)n1nc(N)c2nnn(C3CCC(CO)O3)c(=O)c21 (stereo not shown) [Example 83, 2-(7-amino-3-(5-(hydroxymethyl)tetrahydrofuran-2-yl)-4-oxo-3H-pyrazolo[4,3-d][1,2,3]triazin-5(4H)-yl)-2-(diethoxyphosphoryl)acetic acid]
inhibition in vivo at 20 mg/kg [1]: < 20%

CCCc1nn(C)c2c(=O)n(COC(CO)CO)nnc12 [Example 126, 3-(((1,3-dihydroxypropan-2-yl)oxy)methyl)-5-methyl-7-propyl-3H-pyrazolo[4,3-d][1,2,3]triazin-4(5H)-one]
inhibition in vivo at 50 mg/kg [1]: < 20%

CCCc1nn(O)c2c(=O)n(C3CSC(CO)O3)nnc12 (stereo not shown) [Example 88, 5-hydroxy-3-(2-(hydroxymethyl)-1,3-oxathiolan-5-yl)-7-propyl-3H-pyrazolo[4,3-d][1,2,3]triazin-4(5H)-one]
inhibition in vivo at 400 mg/kg [2]: < 40% | in-vivo anti-tumor efficacy, statistical significance (in words): statistically significant

N#Cc1nn(C(N)=S)c2c(=O)n(C3OC(CO)C(O)C3O)nnc12 (stereo not shown) [Example 77, 7-cyano-3-(3,4-dihydroxy-5-(hydroxymethyl)tetrahydrofuran-2-yl)-4-oxo-3H-pyrazolo[4,3-d][1,2,3]triazine-5(4H)-carbothioamide]
inhibition in vivo at 100 mg/kg [3]: < 40% | in-vivo anti-tumor efficacy, statistical significance (in words): statistically significant

NC(=O)n1nc(N2CCCCC2)c2nnn(C3OC(CO)C(O)C3O)c(=O)c21 (stereo not shown) [Example 59, 3-(3,4-dihydroxy-5-(hydroxymethyl)tetrahydrofuran-2-yl)-4-oxo-7-(piperidin-1-yl)-3H-pyrazolo[4,3-d][1,2,3]triazine-5(4H)-carboxamide]
inhibition in vivo at 50 mg/kg [1]: < 20%

N#Cc1nn(O)c2c(=O)n(C3OC(CO)C(O)C3O)nnc12 (stereo not shown) [Example 17, 3-(3,4-dihydroxy-5-(hydroxymethyl)tetrahydrofuran-2-yl)-5-hydroxy-4-oxo-4,5-dihydro-3H-pyrazolo [4,3-d][1,2,3]triazine-7-carbonitrile]
inhibition in vivo at 25 mg/kg (Mus musculus, S-180, mice, iv, 25 mg/kg, read-out: Inhibition rate (%) S180 sarcoma): < 40% | in-vivo anti-tumor efficacy, statistical significance (in words): statistically significant

2-(3,4-dihydroxy-5-(hydroxymethyl)tetrahydrofuran-2-yl)-7-hydroxy-5-propyl-2,7-dihydro-1H-pyrazolo[4,3-d][1,2,3]triazin-1-one [Example 14]
in-vivo anti-tumor efficacy, statistical significance (in words): statistically significant | Inhibition rate (%) S180 sarcoma (mice, iv, 12.5 mg/kg): ++ (++ represent of Inhibition rate % <40)

CCCc1nn(C(=N)N)c2c(=O)n(C3OC(COP(=O)(O)OP(=O)(O)OP(=O)(O)O)C(O)C3O)nnc12 (stereo not shown) [Example 140, (5-(5-carbamimidoyl-4-oxo-7-propyl-4,5-dihydro-3H-pyrazolo[4,3-d][1,2,3]triazin-3-yl)-3,4-dihydroxytetrahydrofuran-2-yl)methyl tetrahydrogen triphosphate]
inhibition in vivo at 200 mg/kg [4]: < 20%

O=c1c2c(nnn1C1OC(CO)C(O)C1O)nnn2CO (stereo not shown) [Example 148, 6-(3,4-dihydroxy-5-(hydroxymethyl)tetrahydrofuran-2-yl)-1-(hydroxymethyl)-1H-[1,2,3]triazolo[4,5-d][1,2,3]triazin-7(6H)-one]
inhibition in vivo at 200 mg/kg [4]: < 20%

COc1ccc(C(=O)Nc2nn(C(N)=O)c3c(=O)n(C4OC(CO)C(O)C4O)nnc23)cc1 (stereo not shown) [Example 61, 3-(3,4-dihydroxy-5-(hydroxymethyl)tetrahydrofuran-2-yl)-7-(4-methoxybenzamido)-4-oxo-3H-pyrazolo[4,3-d][1,2,3]triazine-5(4H)-carboxamide]
inhibition in vivo at 12.5 mg/kg [5]: < 20%

Cn1nc([N+](=O)[O-])c2nnn(C3OC(CO)C(O)C3O)c(=O)c21 (stereo not shown) [Example 28, 3-(3,4-dihydroxy-5-(hydroxymethyl)tetrahydrofuran-2-yl)-5-methyl-7-nitro-3H-pyrazolo [4,3-d][1,2,3]triazin-4(5H)-one]
inhibition in vivo at 20 mg/kg [1]: < 40% | in-vivo anti-tumor efficacy, statistical significance (in words): statistically significant

CCCc1nn(C)c2c(=O)n(C3CCC(CO)O3)nnc12 (stereo not shown) [Example 80, 3-(5-(hydroxymethyl)tetrahydrofuran-2-yl)-5-methyl-7-propyl-3H-pyrazolo[4,3-d][1,2,3]triazin-4(5H)-one]
inhibition in vivo at 200 mg/kg [4]: < 20%

NC(=O)Cn1nc(N)c2nnn(C3OC(CO)C(O)C3O)c(=O)c21 (stereo not shown) [Example 50, 2-(7-amino-3-(3,4-dihydroxy-5-(hydroxymethyl)tetrahydrofuran-2-yl)-4-oxo-3H-pyrazolo[4,3-d][1,2,3]triazin-5(4H)-yl)acetamide]
inhibition in vivo at 15 mg/kg [1]: < 40% | in-vivo anti-tumor efficacy, statistical significance (in words): statistically significant

NC(=O)Cn1nc([N+](=O)[O-])c2nnn(C3OC(CO)C(O)C3O)c(=O)c21 (stereo not shown) [Example 54, 2-(3-(3,4-dihydroxy-5-(hydroxymethyl)tetrahydrofuran-2-yl)-7-nitro-4-oxo-3H-pyrazolo [4,3-d][1,2,3]triazin-5(4H)-yl)acetamide]
inhibition in vivo at 150 mg/kg (Mus musculus, S-180, mice, ip, 150 mg/kg, read-out: Inhibition rate (%) S180 sarcoma): < 40% | in-vivo anti-tumor efficacy, statistical significance (in words): statistically significant

NC(=O)n1nc(N)c2nnn(C3CSC(CO)O3)c(=O)c21 (stereo not shown) [Example 98, 7-amino-3-(2-(hydroxymethyl)-1,3-oxathiolan-5-yl)-4-oxo-3H-pyrazolo[4,3-d][1,2,3]triazine-5(4H)-carboxamide]
inhibition in vivo at 70 mg/kg (Mus musculus, S-180, mice, ip, 70 mg/kg, read-out: Inhibition rate (%) S180 sarcoma): < 20%

CN(C)CCC(=O)Nc1nn(C(N)=S)c2c(=O)n(C3OC(CO)C(O)C3O)nnc12 (stereo not shown) [Example 76, N-(5-carbamothioyl-3-(3,4-dihydroxy-5-(hydroxymethyl)tetrahydrofuran-2-yl)-4-oxo-4,5-dihydro-3H-pyrazolo[4,3-d][1,2,3]triazin-7-yl)-3-(dimethylamino) propanamide]
in-vivo anti-tumor efficacy, statistical significance (in words): statistically significant | Inhibition rate (%) S180 sarcoma (mice, ip, 400 mg/kg): ++ (++ represent of Inhibition rate % <40)

CN(C)CCC(=O)Nc1nn(C)c2c(=O)n(C3OC(CO)C(O)C3O)nnc12 (stereo not shown) [Example 25, N-(3-(3,4-dihydroxy-5-(hydroxymethyl)tetrahydrofuran-2-yl)-5-methyl-4-oxo-4,5-dihydro-3H-pyrazolo[4,3-d][1,2,3]triazin-7-yl)-3-(dimethylamino) propanamide]
in-vivo anti-tumor efficacy, statistical significance (in words): statistically significant | Inhibition rate (%) S180 sarcoma (mice, ip, 200 mg/kg): ++ (++ represent of Inhibition rate % <40)

Cn1nc(N)c2nnn(C3OC(CO)C(O)C3O)c(=O)c21 (stereo not shown) [Example 24, 7-amino-3-(3,4-dihydroxy-5-(hydroxymethyl)tetrahydrofuran-2-yl)-5-methyl-3H-pyrazolo [4,3-d][1,2,3]triazin-4(5H)-one]
inhibition in vivo at 300 mg/kg (Mus musculus, S-180, mice, ip, 300 mg/kg, read-out: Inhibition rate (%) S180 sarcoma): < 40% | in-vivo anti-tumor efficacy, statistical significance (in words): statistically significant

CCCc1nn(O)c2c(=O)n(C3OC(COC(C(=O)O)P(NC(C)C)OCC#N)C(O)C3O)nnc12 (stereo not shown) [Example 117, 2-((cyanomethoxy)(isopropylamino)phosphino)-2-((3,4-dihydroxy-5-(5-hydroxy-4-oxo-7-propyl-4,5-dihydro-3H-pyrazolo [4,3-d][1,2,3]triazin-3-yl)tetrahydrofuran-2-yl)methoxy)acetic acid]
inhibition in vivo at 15 mg/kg [1]: < 40% | in-vivo anti-tumor efficacy, statistical significance (in words): statistically significant

CCCc1nn(C)c2c(=O)n(C3OC(COC(C(=O)O)P(NC(C)C)OCC#N)C(O)C3O)nnc12 (stereo not shown) [Example 120, 2-((cyanomethoxy)(isopropylamino)phosphino)-2-((3,4-dihydroxy-5-(5-methyl-4-oxo-7-propyl-4,5-dihydro-3H-pyrazolo[4,3-d][1,2,3]triazin-3-yl)tetrahydrofuran-2-yl)methoxy)acetic acid]
inhibition in vivo at 12.5 mg/kg [5]: < 40% | in-vivo anti-tumor efficacy, statistical significance (in words): statistically significant

NC(=O)n1nc(N)c2nnn(C3OC(CO)C(O)C3O)c(=O)c21 (stereo not shown) [Example 56, 7-amino-3-(3,4-dihydroxy-5-(hydroxymethyl)tetrahydrofuran-2-yl)-4-oxo-3H-pyrazolo[4,3-d][1,2,3]triazine-5(4H)-carboxamide]
inhibition in vivo at 100 mg/kg [3]: < 40% | in-vivo anti-tumor efficacy, statistical significance (in words): statistically significant

CCCc1nn(C(N)=O)c2c(=O)n(C3CSC(CO)O3)nnc12 (stereo not shown) [Example 97, 3-(2-(hydroxymethyl)-1,3-oxathiolan-5-yl)-4-oxo-7-propyl-3H-pyrazolo[4,3-d][1,2,3]triazine-5(4H)-carboxamide]
inhibition in vivo at 100 mg/kg [3]: < 40% | in-vivo anti-tumor efficacy, statistical significance (in words): statistically significant

Nc1nn(CO)c2c(=O)n(C3OC(CO)C(O)C3O)nnc12 (stereo not shown) [Example 32, 7-amino-3-(3,4-dihydroxy-5-(hydroxymethyl)tetrahydrofuran-2-yl)-5-(hydroxymethyl)-3H-pyrazolo [4,3-d][1,2,3]triazin-4(5H)-one]
inhibition in vivo at 30 mg/kg (Mus musculus, S-180, mice, iv, 30 mg/kg, read-out: Inhibition rate (%) S180 sarcoma): < 40% | in-vivo anti-tumor efficacy, statistical significance (in words): statistically significant

CCOC(=O)c1nn(CO)c2c(=O)n(C3OC(CO)C(O)C3O)nnc12 (stereo not shown) [Example 30, ethyl 3-(3,4-dihydroxy-5-(hydroxymethyl)tetrahydrofuran-2-yl)-5-(hydroxymethyl)-4-oxo-4,5-dihydro-3H-pyrazolo [4,3-d][1,2,3]triazine-7-carboxylate]
inhibition in vivo at 400 mg/kg [2]: < 40% | in-vivo anti-tumor efficacy, statistical significance (in words): statistically significant
